Experimental data: US9133235B2, “Macrocyclic antagonists of the motilin receptor for treatment of gastrointestinal dysmotility disorders” (Ocera Therapeutics, Inc., priority 2006, dated 2015)

Experiments:
[1] = tested on: isolated colonic segments from the shrew; test: Contractile activity of isolated muscle strips of the shrew
Source text: J. Evaluation of Contractile Activity of Isolated Muscle Strips from the Stomach, Duodenum and Colon of the Shrew.
Motilin (threshold concentration of 10^−8 M) enhances contractions induced by electrical field stimulation (4 Hz) by a post-ganglionic interaction with the cholinergic neurotransmission. At higher concentrations, motilin causes a tonic contraction interacting directly with the antral smooth muscle. Analogously, the effects of motilin and [Nle^13]-motilin (Calbiochem), as selective agonists of the motilin receptor, on smooth muscle strips isolated from the gastric antrum, the circular muscle of the duodenum and the colon of the shrew were investigated. Immunohistochemical studies have shown that endocrine cells in the GI tract of the musk shrew express motilin (Kanamori, Y.; Nakazawa, S.; Kitoh, J.; Hoshino, M. The distribution of endocrine cells in the mucosa of the gastrointestinal tract of the house musk shrew, Suncus murinus (Insectivora). Cell. Tissue Res. 1989, 258, 365-71; Kitamura, N.; Yamada, J.; Watanabe, T.; Yamashita, T. An immunohistochemical study on the distribution of endocrine cells in the gastrointestinal tract of the musk shrew, Suncus murinus. Histol Histopathol. 1990, 5, 83-88.) Shrews were fasted for 8-10 h, euthanized with CO2 inhalation, and the stomach, the duodenum and colon isolated immediately and placed in Krebs buffer aerated with 95% O2 and 5% CO2. Specifically, mucosa-free circular muscle strips were isolated from the antral region, the duodenum and the colon using a dissecting microscope. Isometric contractions were recorded in organ baths following equilibration at optimal tension using the PowerLab data acquisition system. […]
To define the effect of test compounds on different regions of the GI tract of the shrew (gastric antrum, […] and colon) and to evaluate the antagonist affinity of test compounds in this model system, the ability of varying concentrations of test compound to antagonize the motilin or [Nle^13]-motilin-induced contractions was measured in organ baths as described above. […]

Caco-2 cells = test: Caco-2 permeability; type: in vitro ADME, human
Source text: H. Determination of Caco-2 Permeability
The Caco-2 cell line, derived from a human colorectal carcinoma, has become an established in vitro model for the prediction of drug absorption across the human intestine. (Sun, D.; Yu, L. X.; Hussain, M. A.; Wall, D. A.; Smith, R. L.; Amidon, G. L. Curr. Opin. Drug Discov. Devel. 2004, 7, 75-85; Bergstrom, C. A. Basic Clin. Pharmacol. Toxicol. 2005, 96, 156-61; Balimane, P. V.; Han, Y. H.; Chong, S. AAPS J 2006, 8, E1-13; Shah, P.; Jogani, V.; Bagchi, T.; Misra, A. Biotechnol. Prog. 2006, 22, 186-198) When cultured on semi-permeable membranes, Caco-2 cells differentiate into a highly functionalized epithelial barrier with remarkable morphological and biochemical similarity to the small intestinal columnar epithelium. Fully differentiated cell monolayers can be used to assess the membrane transport properties of novel compounds.
Permeability across the Caco-2 cell layer was determined by growing the cells on a membrane placed between two (donor and acceptor) chambers. Drug candidates are typically added to the apical (A) side of the cell layer and their appearance in the basolateral (B) side is measured over incubation time. Permeability in this direction represents intestinal absorption. Permeability may also be determined from the basolateral to the apical side of the Caco-2 cell. […]
Permeability (10 μM) for compounds of the invention in the apical to basolateral and basolateral to apical direction were tested in duplicate. Samples will be collected from the donor and acceptor chambers at the beginning (0 min) and following 60 min of incubation at 37° C. and stored frozen at −70° C. until bioanalysis. Samples for each test compound generated from the Caco-2 permeability assay were further analyzed by LC-MS-MS. The permeability of [^3H]-mannitol and [^3H]-propranolol were determined in parallel as controls.
The permeability coefficient (Papp) of each compound and radiolabeled standard was determined using the following equation:
[formula] where dQ/dT represents the permeability rate, Ci denotes the initial concentration in the donor compartment, and A represents the surface area of the filter. Ci is determined from the mean concentration of duplicate samples taken prior to addition to the donor compartment. Permeability rates were calculated by plotting the cumulative amount of compound measured in the acceptor compartment over time and determining the slope of the line by linear regression analysis. The duplicate and mean apical to basolateral and basolateral to apical Papp's were reported for each compound and standard.

Compound | effect on contractile response to 0.3 μM [Nle^13]-motilin ([1]; 0.01 μM-10 μM, FIG. 18) | effect on contractile response to 0.3 μM motilin ([1]; 0.01 μM-10 μM, FIG. 18) | change in basal contractile activity ([1]; data not shown) | Papp A to B (Caco-2 cells; 10 μM, apical to basolateral, 60 min, 37° C.) [cm/sec × 10^−6] | Papp B to A (Caco-2 cells; 10 μM, basolateral to apical, 60 min, 37° C.) [cm/sec × 10^−6] | B to A/A to B (Caco-2 cells; ratio of Papp)
CCC[C@@H]1NC(=O)[C@@H](C(C)C)NC(=O)[C@@H](Cc2ccc(O)c(Cl)c2)N[C@@H](C)COc2ccccc2CCCNC1=O [Compound 552] | dose-dependent inhibition | dose-dependent inhibition | did not cause a significant change |  |  | 
CC(C)[C@H]1NC(=O)[C@@H](Cc2cccc(C(F)(F)F)c2)NCCOc2ccccc2CCCNC(=O)[C@H](CN(C)C)NC1=O [Compound 502] |  |  |  | 5 | 11 | 2
